Assays:
Assay type in all cases: cell-based
[1] = target: T1, CNT2 (Homo sapiens, UniProt O43868); test: CNT2-mediated uridine uptake in CNT2-MDCKII cells
T1 construct: expressed in transfected cells; host or cells: MDCKII (lentiviral transduction)
T1 sequence (O43868 1-658): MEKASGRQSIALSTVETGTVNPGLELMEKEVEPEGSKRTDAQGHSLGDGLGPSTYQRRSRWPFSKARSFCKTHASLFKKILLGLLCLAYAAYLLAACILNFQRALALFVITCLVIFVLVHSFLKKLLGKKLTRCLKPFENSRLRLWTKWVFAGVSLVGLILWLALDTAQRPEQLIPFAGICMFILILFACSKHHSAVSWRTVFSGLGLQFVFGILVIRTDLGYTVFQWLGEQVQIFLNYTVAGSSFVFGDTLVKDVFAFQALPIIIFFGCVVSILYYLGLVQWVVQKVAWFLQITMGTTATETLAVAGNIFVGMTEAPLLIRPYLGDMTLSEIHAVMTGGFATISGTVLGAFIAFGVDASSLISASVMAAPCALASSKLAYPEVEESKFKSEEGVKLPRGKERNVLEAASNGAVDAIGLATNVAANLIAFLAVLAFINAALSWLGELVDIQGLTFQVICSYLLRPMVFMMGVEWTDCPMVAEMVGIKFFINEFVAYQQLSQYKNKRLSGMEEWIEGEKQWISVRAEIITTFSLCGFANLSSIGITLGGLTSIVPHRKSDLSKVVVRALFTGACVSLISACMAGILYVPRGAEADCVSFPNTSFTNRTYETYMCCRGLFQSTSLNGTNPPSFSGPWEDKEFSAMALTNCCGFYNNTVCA
Method: ENT and CNT transporter interactions were investigated in transporter-overexpressing cell lines. Madin-Darby Canine Kidney II (MDCKII) cell lines overexpressing the human uptake transporters CNT1, CNT2, ENT1, and ENT2 were generated via lentiviral transduction. Cell cultures were maintained in Dulbecco’s modified Eagle’s medium (DMEM) and 4500 mg/L of glucose supplemented with GlutaMax^TM, 10% v/v fetal bovine serum (FBS), 100 units/mL penicillin, and 100 µg/mL streptomycin (all from Gibco/ThermoFisher, Waltham, MA, USA) at 37 °C in 5% CO2 at 95% humidity. For uptake inhibition assays, transporter-expressing cells and mock-transduced control cells were seeded on 96-well tissue culture plates at a density of 1 × 10^5 cells/well. Twenty-four hours after seeding, cells were rinsed twice with Krebs-Henseleit buffer (KH buffer, pH 7.4) and then preincubated for 30 min with solutions containing serial dilutions of the test compounds in KH at room temperature. Following preincubation, the solutions were removed, the cells were rinsed twice with KH buffer, and coincubation was started with a suitable radiolabeled substrate and the diluted series of test compounds. Assay conditions were as follows: 1 µM uridine (traced with 0.1 µCi ^3H-Uridine/well), 30 s (CNT1), and 1 min (CNT2, ENT1) incubations; 1 µM adenosine (traced with 0.1 µCi ^3H-Adenosine/well) and 2 min (ENT2) incubation. All experiments were conducted at room temperature. […] To determine the amounts of accumulated radiolabeled substrates, cell lysates mixed with a liquid scintillation cocktail were measured with a MicroBeta2 microplate counter (PerkinElmer, Singapore).
(§1) Transporter-specific accumulation of the probe substrate was calculated using the following formula: ACCSpec = ACCTRP − ACCMock, where ACCTRP is the accumulation of the probe in transporter-expressing cells and ACCMock is the accumulation of the probe in control cells. Relative transporter-specific accumulation values were calculated as percentages of the control value (with vehicle only).

[2] = target: T2, CNT1 (Homo sapiens, UniProt O00337); test: CNT1-mediated uridine uptake in CNT1-MDCKII cells; conditions: for IC50: MDCKII cells, 1 µM uridine
T2 construct: expressed in transfected cells; host or cells: MDCKII (lentiviral transduction)
T2 sequence (O00337 1-649): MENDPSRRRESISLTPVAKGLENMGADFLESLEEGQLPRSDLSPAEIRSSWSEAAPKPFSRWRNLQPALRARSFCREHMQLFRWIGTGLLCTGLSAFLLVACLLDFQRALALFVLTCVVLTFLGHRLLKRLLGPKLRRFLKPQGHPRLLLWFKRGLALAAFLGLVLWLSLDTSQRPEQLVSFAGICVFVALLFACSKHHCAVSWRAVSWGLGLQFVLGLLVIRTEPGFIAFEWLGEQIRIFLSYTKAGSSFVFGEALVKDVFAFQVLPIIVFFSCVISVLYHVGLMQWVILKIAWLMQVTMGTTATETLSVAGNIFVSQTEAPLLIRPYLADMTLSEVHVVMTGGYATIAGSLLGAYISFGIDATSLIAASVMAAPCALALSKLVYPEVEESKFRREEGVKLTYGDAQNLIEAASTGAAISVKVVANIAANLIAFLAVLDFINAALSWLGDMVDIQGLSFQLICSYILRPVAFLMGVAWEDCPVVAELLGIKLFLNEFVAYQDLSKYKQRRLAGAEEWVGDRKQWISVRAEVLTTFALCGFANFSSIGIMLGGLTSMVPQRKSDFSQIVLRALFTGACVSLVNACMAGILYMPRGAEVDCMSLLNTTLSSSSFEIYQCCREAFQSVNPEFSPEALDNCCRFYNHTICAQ
Method: ENT and CNT transporter interactions were investigated in transporter-overexpressing cell lines. Madin-Darby Canine Kidney II (MDCKII) cell lines overexpressing the human uptake transporters CNT1, CNT2, ENT1, and ENT2 were generated via lentiviral transduction. Cell cultures were maintained in Dulbecco’s modified Eagle’s medium (DMEM) and 4500 mg/L of glucose supplemented with GlutaMax^TM, 10% v/v fetal bovine serum (FBS), 100 units/mL penicillin, and 100 µg/mL streptomycin (all from Gibco/ThermoFisher, Waltham, MA, USA) at 37 °C in 5% CO2 at 95% humidity. For uptake inhibition assays, transporter-expressing cells and mock-transduced control cells were seeded on 96-well tissue culture plates at a density of 1 × 10^5 cells/well. Twenty-four hours after seeding, cells were rinsed twice with Krebs-Henseleit buffer (KH buffer, pH 7.4) and then preincubated for 30 min with solutions containing serial dilutions of the test compounds in KH at room temperature. Following preincubation, the solutions were removed, the cells were rinsed twice with KH buffer, and coincubation was started with a suitable radiolabeled substrate and the diluted series of test compounds. Assay conditions were as follows: 1 µM uridine (traced with 0.1 µCi ^3H-Uridine/well), 30 s (CNT1), and 1 min (CNT2, ENT1) incubations; 1 µM adenosine (traced with 0.1 µCi ^3H-Adenosine/well) and 2 min (ENT2) incubation. All experiments were conducted at room temperature. […] Uptake was terminated by rinsing twice with ice-cold KH buffer, and cells were lysed with 0.1 M NaOH. To determine the amounts of accumulated radiolabeled substrates, cell lysates mixed with a liquid scintillation cocktail were measured with a MicroBeta2 microplate counter (PerkinElmer, Singapore).
as §1

[3] = target: T3, ENT1 (Homo sapiens, UniProt Q99808); test: ENT1-mediated uridine uptake in ENT1-MDCKII cells
T3 construct: expressed in transfected cells; host or cells: MDCKII (lentiviral transduction)
T3 sequence (Q99808 1-456): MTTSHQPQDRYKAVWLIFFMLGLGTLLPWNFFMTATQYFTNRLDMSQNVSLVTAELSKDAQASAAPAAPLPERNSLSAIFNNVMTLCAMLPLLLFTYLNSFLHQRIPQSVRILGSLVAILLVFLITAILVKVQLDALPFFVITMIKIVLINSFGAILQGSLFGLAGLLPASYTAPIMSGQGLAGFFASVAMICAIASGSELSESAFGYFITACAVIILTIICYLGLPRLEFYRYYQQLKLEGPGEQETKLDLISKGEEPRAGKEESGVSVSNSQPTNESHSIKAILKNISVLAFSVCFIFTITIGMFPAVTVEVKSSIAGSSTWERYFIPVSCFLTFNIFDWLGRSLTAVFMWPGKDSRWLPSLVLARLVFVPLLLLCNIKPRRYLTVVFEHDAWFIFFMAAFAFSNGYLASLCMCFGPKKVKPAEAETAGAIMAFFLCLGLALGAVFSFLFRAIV
Method: ENT and CNT transporter interactions were investigated in transporter-overexpressing cell lines. Madin-Darby Canine Kidney II (MDCKII) cell lines overexpressing the human uptake transporters CNT1, CNT2, ENT1, and ENT2 were generated via lentiviral transduction. Cell cultures were maintained in Dulbecco’s modified Eagle’s medium (DMEM) and 4500 mg/L of glucose supplemented with GlutaMax^TM, 10% v/v fetal bovine serum (FBS), 100 units/mL penicillin, and 100 µg/mL streptomycin (all from Gibco/ThermoFisher, Waltham, MA, USA) at 37 °C in 5% CO2 at 95% humidity. For uptake inhibition assays, transporter-expressing cells and mock-transduced control cells were seeded on 96-well tissue culture plates at a density of 1 × 10^5 cells/well. […] To determine the amounts of accumulated radiolabeled substrates, cell lysates mixed with a liquid scintillation cocktail were measured with a MicroBeta2 microplate counter (PerkinElmer, Singapore).
as §1

Row | SMILES | inhibition of CNT2-mediated uridine uptake [1] | IC50 ([1]; 1 µM uridine) [µM] | IC50 [2] [µM] | inhibition of CNT1-mediated uridine uptake ([2]; at 200 μM) | ENT1-mediated uridine transport, inhibited to % of the full activity ([3]; at 200 μM) | inhibition at 200 µM ([2]; read-out: inhibition of CNT1-mediated uridine uptake) [%] | ENT1 uridine transport remaining, % of full activity at 200 µM ([3]; read-out: ENT1-mediated uridine transport, inhibited to % of the full activity) [%]
1 | O=c1nc(NO)ccn1[C@@H]1O[C@H](CO)[C@@H](O)[C@H]1O [EIDD-1931] | strong inhibition | 10.2 | 18.8 | approximately 80% | about 50% | – | –
2 | CC(C)C(=O)OC[C@H]1O[C@@H](n2ccc(NO)nc2=O)[C@H](O)[C@@H]1O [EIDD-2801, Molnupiravir] | less potently inhibited | – | 84.9 | – | – | ~80 | ~50
